# Tests used:
# MDA-MB-231 tumors = experiment: In vivo anti-tumor activity in mice bearing MDA-MB-231 tumors; conditions: 300 nmol/3.7 GBq/kg, female nu nu mice, n=5
# Description: (§1) Four- to eight-week-old female nu nu mice or NSG mice (Harlan Sprague-Dawley, Inc.) were maintained on a standard 12-h light-dark cycle and fed ad libitum with folate deficient purified rodent diet (TestDiet #AIN-93G). FR-positive (human breast adenocarcinoma) or IGROV (human ovarian adenocarcinoma) or KB (human cervical adenocarcinoma) tumor cells were inoculated subcutaneously at the right flank of each mouse. Mice were dosed with [^177Lu]-Compound 34, [^177Lu]-Compound 37, or [^225Ac]-Compound 5 through the lateral tail vein under sterile conditions in a volume of 100 μL/10 g of phosphate-buffered saline (PBS). Growth of each s.c. tumor was followed by measuring the tumor two times per week. Tumors were measured in two perpendicular directions using Vernier calipers, and their volumes were calculated as 0.5×L×W^2, where L=measurement of longest axis in mm and W=measurement of axis perpendicular to L in mm. A stable disease (SD) was defined as volume reduction of <50% and increase of <50% in two weeks. A partial response (PR) was defined as volume regression >50% but with measurable tumor (>2 mm^3) remaining at all times. Complete response (CR) was defined as a disappearance of measurable tumor mass (<2 mm^3) at some point within the study. Cures were defined as CRs without tumor regrowth within the study time frame. As a general measure of gross toxicity, changes in body weights were determined on the same schedule as tumor volume measurements.
# [1] = target: T1, folate receptors on FR-positive KB cells (Homo sapiens, UniProt P15328); experiment: Binding affinity assay: direct binding of 177Lu-labelled compounds to FR-positive KB cells; conditions: 177Lu-labelled compound, 1 h 37 °C
# T1 construct: endogenous in cells; host or cells: KB cells
# Description: FR-positive KB cells and FR-negative A549 cells were seeded in 24-well Falcon plates and allowed to form adherent monolayers (>90% confluent) overnight in FFRPMI/HIFCS. Spent incubation medium was replaced with FFRPMI supplemented with 10% HIFCS containing increasing concentrations (0.78 to 100 nmol/L) of [^177Lu]-Compound 34, [^177Lu]-Compound 37, or [^177Lu]-(non-targeted control) in the absence and presence of 10 μM FA. Cells were incubated for 1 h at 37° C. and then rinsed three times with 0.5 mL PBS. Five hundred microliters of 1% NaOH in PBS were added to each well; after 5 min, cell lysates were collected, transferred to individual tubes, and then counted for radioactivity on a gamma counter. Counts per minute (CPM) values were measured in all samples and plotted against concentration of [^177Lu]-Compound 34, [1^77Lu]-Compound 37, or [^177Lu]-(non-targeted control) using GraphPad Prism 8 program. Dissociation constants (Kd) was calculated using a GraphPad's nonlinear regression one site binding method.
# [2] = Body weight as measure of gross toxicity in the MDA-MB-231 anti-tumor study; format: in vivo; conditions: 300 nmol/3.7 GBq/kg, female nu nu mice bearing MDA-MB-231 tumors
# Source text: as §1, with “Mice were dosed with [^177Lu]-Compound 34, [^177Lu]-Compound 37, or [^225Ac]-Compound 5 through the lateral tail vein under sterile conditions in a volume of 100 μL/10 g of phosphate-buffered saline (PBS).” left out
# [3] = Stability of [177Lu]-Compound 34 solution, radiochemical purity by radio-HPLC; format: physicochemical
# Description: Preparation of [^177Lu]-Compound 34: Compound 34 solution (250 μL, 2 mM) was added to a vial. Gentisic acid/acetate buffer pH 5.5 (800 μL) and ^177LuCl3 solution (170 μL, 184 mCi) were added to the vial. The vial was placed in a shielded heating block and heated at 95° C. for 15 min. After cooling to room temperature, 7 mL of DTPA/sodium ascorbate solution pH 7.4 was added to the labeling mixture. The final solution contains 184 mCi of ^177Lu, 0.6 mg of Compound 34, 8 mg of gentisic acid, 1.5 mg of DTPA, 350 mg of sodium ascorbate.
# [^177Lu]-Compound 34 solution was stored at room temperature and in a refrigerator. The radiochemical purities were monitored using radio-HPLC. [^177Lu]-Compound 34 was stable up to 6 days.
# T1 sequence (P15328 25-234): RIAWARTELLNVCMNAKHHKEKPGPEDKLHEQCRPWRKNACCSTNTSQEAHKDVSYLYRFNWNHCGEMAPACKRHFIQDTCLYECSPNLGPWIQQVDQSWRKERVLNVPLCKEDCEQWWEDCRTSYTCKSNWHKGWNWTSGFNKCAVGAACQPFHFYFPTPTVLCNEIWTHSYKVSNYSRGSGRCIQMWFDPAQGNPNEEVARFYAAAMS
compound,measurement,setting,value
"Nc1nc2ncc(CNc3ccc(C(=O)N[C@@H](CCCCNC(=O)C[C@H](NC(=O)[C@H](Cc4ccc5ccccc5c4)NC(=O)CNC(=O)CN4CCN(CC(=O)O)CCN(CC(=O)O)CCN(CC(=O)O)CC4)C(=O)O)C(=O)O)cc3)nc2c(=O)[nH]1 [[^177Lu]-Compound 34, metal not drawn]",partial responses (PRs),MDA-MB-231 tumors,five
same,Kd,[1],7.21 nM
same,average weight of mice (tolerability),[2],did not lose any significant weight
same,Radiochemical purity (%),"[3]; 0° C., 3 days",97.19%
same,Radiochemical purity (%),"[3]; 0° C., 6 days",96.58%
same,Radiochemical purity (%),"[3]; 0° C., initial",97.14%
same,Radiochemical purity (%),"[3]; Room temperature (24° C.), 3 days",96.77%
same,Radiochemical purity (%),"[3]; Room temperature (24° C.), 6 days",95.89%
same,Radiochemical purity (%),"[3]; Room temperature (24° C.), initial",97.14%
same,time over which the solution was stable,"[3]; stored at room temperature and in a refrigerator, radio-HPLC",up to 6 days

# Reference: patent US20240252693A1, “FOLATE RECEPTOR-TARGETED RADIOTHERAPEUTIC AGENTS AND THEIR USE” (Novartis AG, priority 2021, published 2024)
